According to US8017612B2, “Piperazine compound and use thereof as a HCV polymerase inhibitor” (priority 2006, dated 2011):

Columns and labels:
[1] = target: T1, HCV polymerase (NS5B) type 1b (Hepatitis C virus genotype 1b, UniProt P26663); test: Assay of enzyme (HCV polymerase) inhibitory activity, type 1b enzyme; assay type: biochemical, HCV BK strain (type 1b); details: HCV polymerase inhibitory activity IC50, 1b, type 1b enzyme
T1 construct: a region encoding NS5B (J Virol 1991 March, 65(3), 1105-13, 544 amino acids after deletion of 47 amino acids on the C-terminal); 6xHis (C); made in house; host or cells: Escherichia coli
Summary of the method: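 His-tagged, C-terminally truncated NS5B (BK strain, 1b; 0.5 μg/ml) incubated with compound 60 min at 25 °C on 3′UTR-derived substrate RNA (5 μg/ml), 50 μM ATP/GTP/CTP, 2 μM UTP plus [3H]UTP, pH 7.5. Acid-precipitated RNA counted; IC50 from radioactivity with and without compound.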

[2] = target: T2, HCV polymerase (NS5B) type 1a (Hepatitis C virus genotype 1a, UniProt P26664); test: Assay of enzyme (HCV polymerase) inhibitory activity, type 1a enzyme; assay type: biochemical, HCV type 1a (cloned from the blood of patients); details: HCV polymerase inhibitory activity IC50, 1a, type 1a enzyme
T2 construct: made in house; host or cells: Escherichia coli (by the 'similar method' of the 1b enzyme)
Summary of the method: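 His-tagged NS5B, C-terminal 47 residues deleted, type 1a at 1.5 μg/ml, with 5 μg/ml HCV 3′UTR substrate RNA, 50 μM ATP/GTP/CTP, 2 μM UTP plus [3H]UTP, pH 7.5 Tris, 5 mM MgCl2; 60 min at 25° C. TCA-precipitated RNA counted by scintillation; IC50 from radioactivity with vs. without compound.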

SMILES	IC50 [1] [nM]	IC50 [2] [nM]
O=C(NCc1ccc(OC(F)F)cc1)[C@H]1CN(c2nc3nc(C4CC4)ncc3s2)CCN1S(=O)(=O)c1ccc(OC(F)(F)C(F)F)cc1 [Example 1018, (R)-4-(5-cyclopropyl-thiazolo[4,5-d]pyrimidin-2-yl)-1-[4-(1,1,2,2-tetrafluoro-ethoxy)-benzenesulfonyl]-piperazine-2-carboxylic acid 4-difluoromethoxy-benzylamide]	< 100	< 100
Cc1cc(=O)nc2sc(N3CCN(S(=O)(=O)c4ccc(OC(F)(F)F)cc4)[C@@H](C(=O)NCc4ccc(OC(F)(F)F)cc4)C3)nn12 [Example 1019, (R)-4-(5-methyl-7-oxo-7H-[1,3,4]thiadiazolo[3,2-a]pyrimidin-2-yl)-1-(4-trifluoromethoxy-benzenesulfonyl)-piperazine-2-carboxylic acid 4-trifluoromethoxy-benzylamide]	< 100	< 100
O=C(NCc1ccc(OC(F)(F)F)cc1)[C@H]1CN(c2nc3nc(C4CC4)ncc3s2)CCN1S(=O)(=O)c1ccc(OC(F)(F)C(F)F)cc1 [Example 1020, (R)-4-(5-cyclopropyl-thiazolo[4,5-d]pyrimidin-2-yl)-1-[4-(1,1,2,2-tetrafluoro-ethoxy)-benzenesulfonyl]-piperazine-2-carboxylic acid 4-trifluoromethoxy-benzylamide]	< 100	< 100
Nc1nc(C(F)(F)F)nc2nc(N3CCN(S(=O)(=O)c4ccc(OC(F)(F)F)cc4)[C@@H](C(=O)NCc4ccc(OC(F)(F)F)cc4)C3)sc12 [Example 1021, (R)-4-(7-amino-5-trifluoromethyl-thiazolo[4,5-d]pyrimidin-2-yl)-1-(4-trifluoromethoxy-benzenesulfonyl)-piperazine-2-carboxylic acid 4-trifluoromethoxy-benzylamide]	< 100	< 100
COc1nc(C(F)(F)F)nc2nc(N3CCN(S(=O)(=O)c4ccc(OC(F)(F)F)cc4)[C@@H](C(=O)NCc4ccc(OC(F)(F)F)cc4)C3)sc12 [Example 1022, (R)-4-(7-methoxy-5-trifluoromethyl-thiazolo[4,5-d]pyrimidin-2-yl)-1-(4-trifluoromethoxy-benzenesulfonyl)-piperazine-2-carboxylic acid 4-trifluoromethoxy-benzylamide]	100 to 1000	100 to 1000
O=C(NCc1ccc(OC(F)F)cc1)[C@H]1CN(c2nc3nc(C4CC4)ncc3s2)CCN1S(=O)(=O)c1ccc(C(F)(F)F)cc1 [Example 1023, (R)-4-(5-cyclopropyl-thiazolo[4,5-d]pyrimidin-2-yl)-1-(4-trifluoromethyl-benzenesulfonyl)-piperazine-2-carboxylic acid 4-difluoromethoxy-benzylamide]	< 100	< 100
CC(C)(C)c1ncc2sc(N3CCN(S(=O)(=O)c4ccc(OC(F)(F)F)cc4)[C@@H](C(=O)NCc4ccc(OC(F)(F)F)cc4)C3)nc2n1 [Example 1024, (R)-4-(5-tert-butyl-thiazolo[4,5-d]pyrimidin-2-yl)-1-(4-trifluoromethoxy-benzenesulfonyl)-piperazine-2-carboxylic acid 4-trifluoromethoxy-benzylamide]	< 100	< 100
CC(C)(C)c1ncc2sc(N3CCN(S(=O)(=O)c4ccc(C(F)(F)F)cc4)[C@@H](C(=O)NCc4ccc(OC(F)(F)F)cc4)C3)nc2n1 [Example 1025, (R)-4-(5-tert-butyl-thiazolo[4,5-d]pyrimidin-2-yl)-1-(4-trifluoromethyl-benzenesulfonyl)-piperazine-2-carboxylic acid 4-trifluoromethoxy-benzylamide]	< 100	< 100
Cc1c(Cl)c(=O)nc2sc(N3CCN(S(=O)(=O)c4ccc(OC(F)(F)F)cc4)[C@@H](C(=O)NCc4ccc(OC(F)(F)F)cc4)C3)nn12 [Example 1026, (R)-4-(6-chloro-5-methyl-7-oxo-7H-[1,3,4]thiadiazolo[3,2-a]pyrimidin-2-yl)-1-(4-trifluoromethoxy-benzenesulfonyl)-piperazine-2-carboxylic acid 4-trifluoromethoxy-benzylamide]	< 100	< 100
